Results on nine compounds are retold here after patent US12522594B2, “2-heteroaryl-3-oxo-2,3-dihydropyridazine-4-carboxamides for the treatment of cancer” (Deutsches Krebsforschungszentrum, priority 2017, dated 2026).

What all share (format): cell-based
Assay [1] addresses T1, AHR (Homo sapiens, UniProt P35869).
T1 sequence (P35869 11-848): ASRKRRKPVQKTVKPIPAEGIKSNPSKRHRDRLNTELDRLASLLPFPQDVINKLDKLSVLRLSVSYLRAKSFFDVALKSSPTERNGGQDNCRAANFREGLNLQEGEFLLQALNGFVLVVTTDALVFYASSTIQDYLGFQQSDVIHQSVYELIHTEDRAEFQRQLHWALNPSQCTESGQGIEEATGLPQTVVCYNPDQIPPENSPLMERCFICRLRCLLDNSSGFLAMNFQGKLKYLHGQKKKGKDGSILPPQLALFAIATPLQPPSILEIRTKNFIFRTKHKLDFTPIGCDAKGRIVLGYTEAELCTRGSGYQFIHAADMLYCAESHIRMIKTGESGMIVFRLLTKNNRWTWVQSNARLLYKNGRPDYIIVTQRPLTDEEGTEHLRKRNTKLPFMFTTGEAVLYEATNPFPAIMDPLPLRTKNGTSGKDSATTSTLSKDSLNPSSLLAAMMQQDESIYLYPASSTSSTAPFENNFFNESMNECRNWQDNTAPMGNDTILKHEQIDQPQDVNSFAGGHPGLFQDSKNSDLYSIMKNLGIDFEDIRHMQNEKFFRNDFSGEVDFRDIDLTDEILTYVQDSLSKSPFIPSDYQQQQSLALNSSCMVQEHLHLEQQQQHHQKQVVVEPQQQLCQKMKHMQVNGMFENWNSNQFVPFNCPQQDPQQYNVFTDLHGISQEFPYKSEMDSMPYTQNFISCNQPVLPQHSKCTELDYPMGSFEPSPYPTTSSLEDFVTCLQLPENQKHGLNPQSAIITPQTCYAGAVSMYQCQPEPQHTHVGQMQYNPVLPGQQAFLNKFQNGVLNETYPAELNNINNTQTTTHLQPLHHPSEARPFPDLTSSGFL
The assay can be described thus: In vitro assay 3: AHR-regulated CYP1A1 expression in human cell line (U937, qPCR, KA stimulation). The following applies: U937 cells, 200 uM KA, 6 hours, CYP1A1 expression by qPCR; read-out: Assay 3: Hum CYP1A1 Antagonism IC50. In outline:
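U937 human monocytic cells were stimulated with 200 uM KA for 6 h, with or without compound at eight concentrations from 1 nM to 3 uM, in duplicate. CYP1A1 mRNA was quantified by Taqman qPCR as fold expression normalised to HPRT. Unstimulated cells served as negative control.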
For orientation: Real-time PCR tracks product formation cycle by cycle.

The target of assay [2] is T1, AHR. Nature of the assay: In vitro assay 1: antagonism in human cell line (transactivation assay, U87 cells prestimulated with kynurenic acid, DRE firefly luciferase reporter). The arrangement: host or cells: U87 glioblastoma cells, stably transfected with DRE firefly luciferase and renilla reporter constructs. The note with it: 150 uM kynurenic acid, 20 hours, read-out: Assay 1: AHR-luc Hum Antagonism IC50. In outline: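 U87 glioblastoma cells with endogenous AHR, stably carrying a DRE-driven firefly luciferase reporter and a constitutive renilla reporter. Cells prestimulated with the AHR agonist kynurenic acid before compound addition; data normalized to positive and negative controls.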

Assay [3] concerns the target T1, AHR. The assay can be described thus: In vitro assay 2: agonism in human cell line (transactivation assay, U87 cells, DRE firefly luciferase reporter). The arrangement: host or cells: U87 glioblastoma cells, stably transfected with DRE firefly luciferase and renilla reporter constructs. The note with it: no kynurenic acid, 20 hours, read-out: Assay 2: AHR-luc Hum Agonism IC50. A digest of the protocol: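 U87 glioblastoma cells with endogenous AHR, stably carrying DRE-driven firefly luciferase and constitutive renilla reporters. 300 uM kynurenic acid served as positive activation control; data normalized to positive and negative controls.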
(In general: In a reporter assay the amount or activity of a reporter protein is the signal.)

A word on the IC50: it is the concentration needed to halve the response being measured.

Turning to `O=C(NCC(O)C(F)F)c1cc(-c2ccc(Cl)cc2)nn(-c2cccnc2)c1=O` (single isomer, unassigned; (-)) [Example 87, (−)-6-(4-Chlorophenyl)-N-(3,3-difluoro-2-hydroxypropyl)-3-oxo-2-(pyridin-3-yl)-2,3-dihydropyridazine-4-carboxamide], the IC50 at AHR [1] was 21.5 nM; at AHR [2], 29.6 nM; at AHR [3], over 20000 nM.
On to `O=C(NC[C@H](O)CO)c1cc(-c2ccc(Cl)cc2)nn(-c2cccnc2)c1=O` [Example 72, (−)-6-(4-Chlorophenyl)-N-[(2S)-2,3-dihydroxypropyl]-3-oxo-2-(pyridin-3-yl)-2,3-dihydropyridazine-4-carboxamide], for which the values for the IC50 at AHR [1], on AHR [2] and at AHR [3] were 495 nM, 182 nM and over 20000 nM, respectively.
For `C[C@@H](CO)NC(=O)c1cc(-c2ccc(Cl)cc2)nn(-c2ccn(C)n2)c1=O` [Example 192, 6-(4-Chlorophenyl)-N-[(2S)-1-hydroxypropan-2-yl]-2-(1-methyl-1H-pyrazol-3-yl)-3-oxo-2,3-dihydropyridazine-4-carboxamide], in that order: 4.3 nM, 341 nM and over 20000 nM.
With `O=C(N[C@@H]1CC[C@@H]1O)c1cc(-c2ccc(C(F)(F)F)cc2)nn(-c2cccnc2)c1=O` (single isomer, unassigned) [Example 217, (+)-N-cis-2- Hydroxycyclobutyl-3-oxo-2-(pyridin-3-yl)-6-[4-(trifluoromethyl)phenyl]-2,3-dihydropyridazine-4-carboxamide], the IC50 is 7.01 nM at AHR [1], 2.44 nM on AHR [2] and over 20000 nM at AHR [3].
As for `Cn1cc(-n2nc(-c3ccc(C(F)(F)F)cc3)cc(C(=O)N[C@@H]3CCC[C@H]3O)c2=O)cn1` [Example 248, N-[(1R,2R)-2-Hydroxycyclo-pentyl]-2-(1-methyl-1H-pyrazol-4-yl)-3-oxo-6-[4-(trifluoromethyl)phenyl]-2,3-dihydropyridazine-4-carboxamide], the IC50 at AHR [1] was 31.3 nM; at AHR [2], 14.1 nM; on AHR [3], over 20000 nM.
In the case of `O=C(N[C@H]1CCC[C@@H]1O)c1cc(-c2ccc(Cl)cc2)nn(-c2cccnc2)c1=O` [Example 130, 6-(4-Chlorophenyl)-N-[(1S,2S)-2-hydroxycyclopentyl]-3-oxo-2-(pyridin-3-yl)-2,3-dihydropyridazine-4-carboxamide], the half-maximal inhibitory concentration (IC50) was 6.42 nM on AHR [1], 6.54 nM at AHR [2] and over 20000 nM on AHR [3].
Take `Cn1cc(-n2nc(-c3ccc(Cl)cc3)cc(C(=O)N[C@H]3CCC[C@H]3O)c2=O)cn1` [Example 50, 6-(4-Chlorophenyl)-N-[(1S,2R)-2-hydroxycyclopentyl]-2-(1-methyl-1H-pyrazol-4-yl)-3-oxo-2,3-dihydropyridazine-4-carboxamide]: the IC50 on AHR [1] was 6.74 nM; at AHR [2], 8.39 nM; at AHR [3], over 20000 nM.
For `Cn1cc(-n2nc(-c3ccc(Cl)cc3)cc(C(=O)N[C@@H]3COC[C@@H]3O)c2=O)cn1` (single isomer, unassigned; enantiomer 1) [Example 44, 6-(4-Chlorophenyl)-N-[(cis)-4-hydroxytetrahydrofuran-3-yl]-2-(1-methyl-1H-pyrazol-4-yl)-3-oxo-2,3-dihydropyridazine-4-carboxamide, Enantiomer 1], the IC50 was 9.43 nM on AHR [1], 11.6 nM on AHR [2] and over 20000 nM at AHR [3].
Take `Cn1cc(-n2nc(-c3ccc(C(F)(F)F)cc3)cc(C(=O)N[C@H](CO)CF)c2=O)cn1` [Example 211, N-[(2R)-1-Fluoro-3-hydroxypropan-2-yl]-2-(1-methyl-1H-pyrazol-4-yl)-3-oxo-6-[4-(trifluoromethyl)phenyl]-2,3-dihydropyridazine-4-carboxamide]: the values for the IC50 on AHR [1], at AHR [2] and at AHR [3] were 2.67 nM, 1.62 nM and over 20000 nM, respectively.
